Test results as given in patent US10670605B2, “Cysteine reactive probes and uses thereof” (The Scripps Research Institute, priority 2015, dated 2020).

Columns and labels:
Assay in all cases: Competitive isoTOP-ABPP, cell lysates
Format in all cases: binding
RELB C109 (Q01201) = target: T1, RELB C109 (Q01201) (Homo sapiens, UniProt Q01201); details: for R value (DMSO/fragment): 500 μM
T1 sequence (Q01201 1-579): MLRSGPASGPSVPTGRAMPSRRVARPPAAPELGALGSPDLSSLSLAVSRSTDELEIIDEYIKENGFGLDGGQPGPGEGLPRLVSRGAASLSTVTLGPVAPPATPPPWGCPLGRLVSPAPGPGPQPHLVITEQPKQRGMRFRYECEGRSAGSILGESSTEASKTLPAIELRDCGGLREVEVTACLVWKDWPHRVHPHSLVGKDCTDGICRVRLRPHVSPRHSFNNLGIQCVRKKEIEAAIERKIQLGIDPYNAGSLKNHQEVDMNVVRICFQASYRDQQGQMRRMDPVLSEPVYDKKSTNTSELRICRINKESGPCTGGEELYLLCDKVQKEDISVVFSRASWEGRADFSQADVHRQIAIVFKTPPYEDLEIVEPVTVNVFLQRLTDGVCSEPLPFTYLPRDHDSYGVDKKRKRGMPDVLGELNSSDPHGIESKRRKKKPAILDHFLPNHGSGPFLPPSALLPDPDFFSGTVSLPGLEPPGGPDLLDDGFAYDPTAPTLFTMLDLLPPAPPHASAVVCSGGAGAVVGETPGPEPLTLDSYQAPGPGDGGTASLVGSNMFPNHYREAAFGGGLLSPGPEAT

USP34 C741 (Q70CQ2) = USP34 C741 (Q70CQ2) (Homo sapiens, UniProt Q70CQ2)
Chain of USP34 C741 (Q70CQ2) (Q70CQ2 whole entry): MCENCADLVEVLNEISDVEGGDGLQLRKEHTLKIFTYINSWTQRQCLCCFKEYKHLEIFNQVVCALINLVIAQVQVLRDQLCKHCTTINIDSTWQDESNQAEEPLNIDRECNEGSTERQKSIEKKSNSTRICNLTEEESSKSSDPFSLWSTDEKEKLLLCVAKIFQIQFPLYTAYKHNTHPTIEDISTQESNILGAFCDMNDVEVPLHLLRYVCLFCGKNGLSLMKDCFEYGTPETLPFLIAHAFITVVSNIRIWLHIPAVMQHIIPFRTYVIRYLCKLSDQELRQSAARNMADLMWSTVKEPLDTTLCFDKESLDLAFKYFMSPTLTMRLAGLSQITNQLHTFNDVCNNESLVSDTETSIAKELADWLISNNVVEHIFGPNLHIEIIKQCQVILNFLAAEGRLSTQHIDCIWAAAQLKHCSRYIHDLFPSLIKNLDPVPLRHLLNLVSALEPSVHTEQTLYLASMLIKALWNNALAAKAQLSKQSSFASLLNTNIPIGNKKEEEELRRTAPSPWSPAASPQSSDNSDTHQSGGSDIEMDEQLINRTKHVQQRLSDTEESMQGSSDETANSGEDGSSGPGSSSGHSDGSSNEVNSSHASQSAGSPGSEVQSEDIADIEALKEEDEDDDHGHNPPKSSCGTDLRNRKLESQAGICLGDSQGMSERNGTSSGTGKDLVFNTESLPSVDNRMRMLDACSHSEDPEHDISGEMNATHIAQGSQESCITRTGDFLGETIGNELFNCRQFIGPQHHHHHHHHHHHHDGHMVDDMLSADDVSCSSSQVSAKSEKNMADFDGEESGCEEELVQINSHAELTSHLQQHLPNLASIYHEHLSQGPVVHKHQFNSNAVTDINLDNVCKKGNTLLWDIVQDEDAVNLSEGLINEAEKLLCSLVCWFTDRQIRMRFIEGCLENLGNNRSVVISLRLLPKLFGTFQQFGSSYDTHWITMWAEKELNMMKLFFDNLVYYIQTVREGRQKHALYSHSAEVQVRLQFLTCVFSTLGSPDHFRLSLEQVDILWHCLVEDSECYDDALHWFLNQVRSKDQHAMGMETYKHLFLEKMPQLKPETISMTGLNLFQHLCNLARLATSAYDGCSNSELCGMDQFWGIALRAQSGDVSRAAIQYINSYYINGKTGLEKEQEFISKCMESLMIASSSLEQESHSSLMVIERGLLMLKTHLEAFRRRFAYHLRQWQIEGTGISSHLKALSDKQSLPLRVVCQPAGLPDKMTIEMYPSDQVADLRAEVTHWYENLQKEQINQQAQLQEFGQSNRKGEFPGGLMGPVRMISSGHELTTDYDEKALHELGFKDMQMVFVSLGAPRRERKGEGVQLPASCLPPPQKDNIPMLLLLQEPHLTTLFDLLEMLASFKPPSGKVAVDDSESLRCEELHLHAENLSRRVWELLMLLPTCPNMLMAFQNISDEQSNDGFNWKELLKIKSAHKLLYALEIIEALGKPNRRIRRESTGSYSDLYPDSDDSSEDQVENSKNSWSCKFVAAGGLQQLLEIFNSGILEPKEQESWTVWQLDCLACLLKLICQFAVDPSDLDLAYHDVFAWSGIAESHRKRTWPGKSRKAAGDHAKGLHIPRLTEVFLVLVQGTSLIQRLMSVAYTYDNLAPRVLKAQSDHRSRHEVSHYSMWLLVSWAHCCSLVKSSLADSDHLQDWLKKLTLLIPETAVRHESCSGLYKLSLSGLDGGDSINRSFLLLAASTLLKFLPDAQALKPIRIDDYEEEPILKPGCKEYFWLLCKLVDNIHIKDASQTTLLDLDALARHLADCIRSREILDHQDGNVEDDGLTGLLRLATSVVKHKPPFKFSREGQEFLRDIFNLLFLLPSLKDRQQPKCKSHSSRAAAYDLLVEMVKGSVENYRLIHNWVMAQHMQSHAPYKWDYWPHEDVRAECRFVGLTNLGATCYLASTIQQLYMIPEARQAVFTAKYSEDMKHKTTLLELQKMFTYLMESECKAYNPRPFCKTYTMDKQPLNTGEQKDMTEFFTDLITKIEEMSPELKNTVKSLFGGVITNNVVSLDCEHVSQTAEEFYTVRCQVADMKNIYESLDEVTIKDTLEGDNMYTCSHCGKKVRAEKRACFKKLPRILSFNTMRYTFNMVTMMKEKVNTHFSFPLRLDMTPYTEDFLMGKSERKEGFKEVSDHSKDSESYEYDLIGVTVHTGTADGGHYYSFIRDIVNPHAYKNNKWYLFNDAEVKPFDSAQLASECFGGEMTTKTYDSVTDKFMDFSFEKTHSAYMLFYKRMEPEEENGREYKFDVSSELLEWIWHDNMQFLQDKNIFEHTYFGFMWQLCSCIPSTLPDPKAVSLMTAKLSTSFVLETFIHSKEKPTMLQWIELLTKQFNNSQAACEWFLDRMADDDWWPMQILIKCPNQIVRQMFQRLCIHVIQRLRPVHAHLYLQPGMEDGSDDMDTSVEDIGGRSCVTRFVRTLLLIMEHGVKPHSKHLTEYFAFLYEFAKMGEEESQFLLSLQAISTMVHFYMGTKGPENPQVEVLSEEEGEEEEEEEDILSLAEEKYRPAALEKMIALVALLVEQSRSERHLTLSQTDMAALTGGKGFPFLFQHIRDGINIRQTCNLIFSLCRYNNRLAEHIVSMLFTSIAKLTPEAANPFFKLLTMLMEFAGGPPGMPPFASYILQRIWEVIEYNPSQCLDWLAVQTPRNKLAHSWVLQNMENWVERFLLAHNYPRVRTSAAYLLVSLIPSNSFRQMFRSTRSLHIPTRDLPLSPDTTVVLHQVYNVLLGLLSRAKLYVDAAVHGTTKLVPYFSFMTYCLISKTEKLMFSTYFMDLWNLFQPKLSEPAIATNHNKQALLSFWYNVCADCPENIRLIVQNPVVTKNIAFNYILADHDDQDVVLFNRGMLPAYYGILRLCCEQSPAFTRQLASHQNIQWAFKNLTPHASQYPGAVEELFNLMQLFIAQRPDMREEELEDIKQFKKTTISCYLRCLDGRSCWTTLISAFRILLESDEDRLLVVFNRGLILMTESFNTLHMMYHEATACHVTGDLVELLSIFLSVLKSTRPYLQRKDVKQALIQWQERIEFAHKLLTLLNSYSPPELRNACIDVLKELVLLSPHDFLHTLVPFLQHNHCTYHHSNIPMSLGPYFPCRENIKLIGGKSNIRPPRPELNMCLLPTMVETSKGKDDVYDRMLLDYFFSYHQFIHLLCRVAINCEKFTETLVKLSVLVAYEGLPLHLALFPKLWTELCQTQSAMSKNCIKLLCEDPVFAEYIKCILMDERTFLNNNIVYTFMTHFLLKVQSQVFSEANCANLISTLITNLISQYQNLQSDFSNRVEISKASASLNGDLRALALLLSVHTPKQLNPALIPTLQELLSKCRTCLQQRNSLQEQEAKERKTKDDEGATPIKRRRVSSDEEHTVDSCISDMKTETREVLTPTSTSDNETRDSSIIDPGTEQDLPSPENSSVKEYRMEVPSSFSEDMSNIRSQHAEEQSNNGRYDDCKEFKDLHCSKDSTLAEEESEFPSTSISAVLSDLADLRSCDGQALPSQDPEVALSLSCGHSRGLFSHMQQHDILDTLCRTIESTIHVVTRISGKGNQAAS

CASP2 C370 (P42575) = target: T2, CASP2 C370 (P42575) (Homo sapiens, UniProt P42575); details: for isoTOP-ABPP reactivity ratio, P42575_C370: 500 μm, in-vitro_ramos
T2 sequence (P42575 1-452): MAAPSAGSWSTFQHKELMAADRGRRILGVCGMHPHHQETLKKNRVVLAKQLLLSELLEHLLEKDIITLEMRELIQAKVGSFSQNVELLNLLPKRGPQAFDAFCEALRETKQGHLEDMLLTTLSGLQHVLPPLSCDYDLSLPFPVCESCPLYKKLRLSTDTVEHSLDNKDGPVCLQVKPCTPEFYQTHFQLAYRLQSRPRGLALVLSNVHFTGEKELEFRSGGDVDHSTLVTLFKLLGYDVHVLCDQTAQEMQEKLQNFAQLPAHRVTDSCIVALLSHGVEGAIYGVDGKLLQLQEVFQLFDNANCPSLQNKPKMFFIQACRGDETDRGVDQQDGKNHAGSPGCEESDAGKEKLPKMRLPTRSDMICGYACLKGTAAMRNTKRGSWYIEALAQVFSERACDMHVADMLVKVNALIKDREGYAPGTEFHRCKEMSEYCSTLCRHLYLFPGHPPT

PELI1 C282 (Q96FA3) = target: T3, PELI1 C282 (Q96FA3) (Homo sapiens, UniProt Q96FA3); details: for isoTOP-ABPP ratio (reactivity profile), Q96FA3_C282: 500 μm in-vitro ramos; for isoTOP-ABPP reactivity ratio, Q96FA3_C282 / isoTOP-ABPP reactivity profile ratio, Q96FA3_C282: 500 μm, in-vitro_ramos
T3 sequence (Q96FA3 1-418): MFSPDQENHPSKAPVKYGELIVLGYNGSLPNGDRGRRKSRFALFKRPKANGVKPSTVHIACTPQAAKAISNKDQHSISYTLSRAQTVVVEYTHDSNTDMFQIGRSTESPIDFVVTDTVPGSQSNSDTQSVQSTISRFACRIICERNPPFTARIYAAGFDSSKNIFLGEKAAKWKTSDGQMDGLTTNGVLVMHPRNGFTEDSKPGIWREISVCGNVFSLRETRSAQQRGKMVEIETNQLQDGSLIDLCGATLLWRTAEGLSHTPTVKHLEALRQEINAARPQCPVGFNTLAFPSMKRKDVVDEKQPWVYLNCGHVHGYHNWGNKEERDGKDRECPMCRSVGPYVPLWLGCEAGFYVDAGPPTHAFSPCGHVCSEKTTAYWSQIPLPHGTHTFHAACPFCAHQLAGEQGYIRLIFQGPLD

Question: Which results are given for COc1ccc2c(c1)CCCN2C(=O)CCl [compound 2]?
Answer: R value (DMSO/fragment) (RELB C109 (Q01201); in vitro, MDA-MB-231): 20.0; R value (DMSO/fragment) (RELB C109 (Q01201); invitro, ramos): 20.0

Question: For O=C(CCl)Nc1cc(C(F)(F)F)cc(C(F)(F)F)c1 [compound 3], which “R value (DMSO/fragment)” value (USP34 C741 (Q70CQ2); 500 μM, invitro, ramos) is on record?
Answer: 3.2

Question: And the “R value (DMSO/fragment)” value (CASP2 C370 (P42575); 500 μM, invitro, ramos)?
Answer: 7.4

Question: For O=C(CCl)N1CCN(S(=O)(=O)c2ccccc2F)CC1 [compound 10], which “isoTOP-ABPP ratio, Q70CQ2_C741” value (USP34 C741 (Q70CQ2); 500 μM, invitro, ramos) is on record?
Answer: 0.9

Question: And the “isoTOP-ABPP ratio, P42575_C370” value (CASP2 C370 (P42575); 500 μM, invitro, ramos)?
Answer: 1.2

Question: How did the “isoTOP-ABPP ratio, P42575_C370” value (CASP2 C370 (P42575); 500 μM, invitro, ramos) turn out when Cn1cc(S(=O)(=O)N2CCOCC2)cc1C(=O)NC(=O)CCl [compound 11] was run?
Answer: 6.0

Question: With O=C(CCl)NCCc1c[nH]c2ccccc12 [compound 13] as the compound, how does the “isoTOP-ABPP ratio, Q70CQ2_C741” value (USP34 C741 (Q70CQ2); 500 μM, invitro, 231) read?
Answer: 0.8

Question: What does the source list for O=C(CCl)N1CCC(C(O)(c2ccccc2)c2ccccc2)CC1 [compound 20]?
Answer: isoTOP-ABPP ratio (reactivity profile), Q70CQ2_C741 (USP34 C741 (Q70CQ2); 500 μm in-vitro ramos): 1.7; isoTOP-ABPP ratio (reactivity profile), Q70CQ2_C741 (USP34 C741 (Q70CQ2); 500 μm in-vitro ramos_231): 2.8

Question: How did the “isoTOP-ABPP ratio (reactivity profile), Q70CQ2_C741” value (USP34 C741 (Q70CQ2); 500 μm in-vitro ramos) turn out when O=C(CCl)NC12CC3CC(CC(C3)C1)C2 [compound 21] was run?
Answer: 1.7

Question: Which “isoTOP-ABPP ratio (reactivity profile), Q01201_C109” value (from here on “isoTOP-ABPP ratio … Q01201_C109”) (RELB C109 (Q01201); 500 μm in-vitro ramos) does the source give for N#C/C(=C\c1cc(C(F)(F)F)cc(C(F)(F)F)c1)C(N)=O [compound 23] here?
Answer: 1.3

Question: What about the “isoTOP-ABPP ratio (reactivity profile), P42575_C370” value (CASP2 C370 (P42575); 500 μm in-vitro ramos) of the same compound?
Answer: 2.1

Question: How did the “isoTOP-ABPP ratio … Q01201_C109” value (RELB C109 (Q01201); 500 μm in-vitro ramos) turn out when CC(Br)C(=O)Nc1cc(C(F)(F)F)cc(C(F)(F)F)c1 (stereo not shown) [compound 24] was run?
Answer: 1.5

Question: And the “isoTOP-ABPP ratio (reactivity profile), P42575_C370” value (CASP2 C370 (P42575); 500 μm in-vitro ramos)?
Answer: 2.2

Question: With O=C(/C=C/c1ccccc1)Nc1cc(C(F)(F)F)cc(C(F)(F)F)c1 [compound 26] as the compound, how does the “isoTOP-ABPP ratio (reactivity profile), Q96FA3_C282” value (PELI1 C282 (Q96FA3)) read?
Answer: 0.5

Question: Which “isoTOP-ABPP ratio … Q01201_C109” value (RELB C109 (Q01201); 500 μm in-vitro ramos_231) does the source give for CC(C)CCOCCNC(=O)CCl [compound 27] here?
Answer: 0.8

Question: And the “isoTOP-ABPP ratio (reactivity profile), P42575_C370” value (CASP2 C370 (P42575); 500 μm in-vitro ramos_231)?
Answer: 0.9

Question: COc1ccccc1OCCNC(=O)CCl [compound 28] was tested. Which “isoTOP-ABPP ratio … Q01201_C109” value (RELB C109 (Q01201); 500 μm in-vitro ramos) did it give?
Answer: 1.1

Question: And the “isoTOP-ABPP ratio (reactivity profile), Q96FA3_C282” value (PELI1 C282 (Q96FA3))?
Answer: 0.7

Question: With CCN(CC)c1ccc(S(N)(=O)=O)cc1NC(=O)CCl [compound 30] as the compound, how does the “isoTOP-ABPP reactivity ratio, Q96FA3_C282” value (PELI1 C282 (Q96FA3)) read?
Answer: 1.5

Question: And the “isoTOP-ABPP reactivity ratio, P42575_C370” value (CASP2 C370 (P42575))?
Answer: 4.1

Question: Which “isoTOP-ABPP reactivity ratio, Q70CQ2_C741” value (USP34 C741 (Q70CQ2); 500 μm, in-vitro_ramos_231) does the source give for C=CC(=O)N(Cc1cccnc1)c1cc(C(F)(F)F)cc(C(F)(F)F)c1 [compound 31] here?
Answer: 4.2

Question: How did the “isoTOP-ABPP reactivity ratio, Q01201_C109” value (RELB C109 (Q01201); 500 μm, in-vitro_ramos) turn out when CC(C)(C)c1cc(NC(=O)CCl)on1 [compound 32] was run?
Answer: 20.0

Question: Which “isoTOP-ABPP reactivity ratio, Q70CQ2_C741” value (USP34 C741 (Q70CQ2); 500 μm, in-vitro_ramos) does the source give for C=CC(=O)N1CCC(c2noc3ccc(F)cc23)CC1 [compound 37] here?
Answer: 1.1

Question: And the “isoTOP-ABPP reactivity ratio, P42575_C370” value (CASP2 C370 (P42575))?
Answer: 0.7

Question: For C=CC(=O)Nc1cc(F)c(N2CCN(C(=O)OC(C)(C)C)CC2)c(F)c1 [compound 38], which “isoTOP-ABPP reactivity ratio, Q70CQ2_C741” value (USP34 C741 (Q70CQ2); 500 μm, in-vitro_ramos) is on record?
Answer: 4.1

Question: What about the “isoTOP-ABPP reactivity ratio, Q96FA3_C282” value (PELI1 C282 (Q96FA3)) of the same compound?
Answer: 7.0

Question: C=CC(=O)Nc1cc(C)c(Br)cc1C [compound 40] was tested. Which “isoTOP-ABPP reactivity ratio, P42575_C370” value (CASP2 C370 (P42575)) did it give?
Answer: 2.7

Question: With Cc1ccc(C=C(C#N)C(=O)NCCN2CCOCC2)cc1 [compound 41] as the compound, how does the “isoTOP-ABPP reactivity ratio, P42575_C370” value (CASP2 C370 (P42575)) read?
Answer: 1.4

Question: N#CC(=Cc1ccc(-c2ccccc2Cl)o1)C(N)=O [compound 42] was tested. Which “isoTOP-ABPP reactivity profile ratio, Q96FA3_C282” value (PELI1 C282 (Q96FA3)) did it give?
Answer: 1.2

Question: How did the “isoTOP-ABPP reactivity profile ratio, Q01201_C109” value (RELB C109 (Q01201); 500 μm, in-vitro_ramos) turn out when O=C(CCl)Nc1cccc2ncccc12 [compound 51] was run?
Answer: 1.6

Question: And the “isoTOP-ABPP reactivity profile ratio, Q70CQ2_C741” value (USP34 C741 (Q70CQ2); 500 μm, in-vitro_ramos)?
Answer: 0.9

Question: With O=C(CCl)Nc1ccc(-c2ccccc2)cc1 [compound 52] as the compound, how does the “isoTOP-ABPP reactivity profile ratio, Q96FA3_C282” value (PELI1 C282 (Q96FA3)) read?
Answer: 20.0
